Measured values reported in patent US20180044640A1, “CONTRACTILE CELLULAR CONSTRUCT FOR CELL CULTURE” (Agency for Science, Technology and Research, priority 2015, published 2018).
Read-outs that look alike come from different tables or passages of the source.

Legend:
[1] = tested on: 3D cardiac tissues (hiPSC-derived cardiomyocytes)
Procedure: To generate 3D cardiac tissues, 12-day differentiated cardiac cells were detached from culture wells using accutase (Stem Cell Technologies), suspended in RPMI-B27medium containing Y-27632 (5 uM) to reach a final concentration of 1.5×10^8 cells/mL. Casting molds were prepared by placing the tissue holder and PDMS molds in 96-well culture plates. For each tissue, 12 μL cell suspension was loaded into the cell loading channel. For florescence-labeled cardiac tissue, 12 μL cell suspension was mixed briefly with ˜20 FluoSpheres polystyrene microspheres (diameter 15 μm, Life Technologies) and pipetted into cell loading channels. The 96-well plates were placed in a 37° C., 5% CO2 culture incubator for 2 hours. 0.20 mL of cell culture medium was then added per well for continued culture. After one day of culture, media was changed to RPMI-B27 medium without Y-27632 and changed every day.
Cardiac tissue contractility was assessed based on the recorded video using IMARIS software. The cardiac tissues were labeled with fluorescence beads, as described above. The video was exported as image stacks for IMARIS tracking analysis. The software can identify the contraction and relaxation events based on the relative positions of the florescence beads during the entire tissue beating sequence. These positions were recorded, and the relevant contractility parameters were calculated from the temporal change of these positions.
Toxicity studies were performed using a Zeiss fluorescence microscope, within a closed environment chamber maintaining constant 37° C. temperature and 5% CO2 humidified air for long time lapse imaging of live cells. An experiment design program in Zen software was used to create an automatic measurement program. For chronic drug response, videos were recorded for each well at every 1 h interval.
The videos were recorded at cumulative concentrations 1 hr before measurement, and processed using IMARIS software.

Cardiac spheroids = experiment: Toxicity assay based on ATP activity (CellTiter-Glo 3D cell viability assay); parameters: species or system human; conditions: 1 hr incubation, normalized to drug-free controls
Procedure: Cardiac spheroids were incubated with various concentrations of compounds dissolved in culture medium for 1 hr, and cell viability was subsequently measured by CellTiter-Glo® 3D cell viability assay (Promega), which determines the number of viable cells in culture based on quantitation of the ATP present. Data is normalized to drug-free controls. Data from the same treatment on 3 occasions were averaged to represent the mean ATP measurement.

[2] = tested on: iPSC-derived cardiomyocytes monolayer; format: cell-based; conditions: human; for Time at which significant reduced beating speed was observed / Time of total arrest of beating: 2 days
Procedure: The 12-day differentiated cardiomyocytes were detached using accutase and suspended in RPMI-B27 medium containing Y-27632 (5 uM). The cell suspension was mixed with FluoSpheres polystyrene microspheres, and loaded into matrigel or fibronectin coated 384-well microplate (Greiner) or 96-well tissue culture plates at 0.25˜0.30 *10^6cells/50˜100 microspheres/cm^2.
The videos were recorded for each well at every 1 hr interval and processed using IMARIS software.

With `N[C@@H]1[C@H]2CN(c3nc4c(cc3F)c(=O)c(C(=O)O)cn4-c3ccc(F)cc3F)C[C@@H]12` [trovafloxacin] the “Concentration at which complete arrest of contraction was observed” value (from here on “Concentration … of contraction was observed”) ([1]; human, 1 h) was 100 µM.
With `C=C[C@H]1C[N@@]2CC[C@H]1C[C@@H]2[C@@H](O)c1ccnc2ccc(OC)cc12` [quinidine] the “Concentration … of contraction was observed” value ([1]; human, 1 h) was 10 µM.
In the case of `CCS(=O)(=O)N(C)[C@H]1c2cc(C#N)ccc2OC(C)(C)[C@@H]1O` (racemic) [chromanol 293B], the “Concentration … of contraction was observed” value [1] is reported as 200 µM.
In the case of `CN(CCOc1ccc(CC2SC(=O)NC2=O)cc1)c1ccccn1` (stereo not shown) [rosiglitazone, Rosiglitazone], the “Concentration … of contraction was observed” value ([1]; human, 1 h) is reported as 50 µM.
`CC1(C)S[C@@H]2[C@H](NC(=O)[C@H](N)c3ccccc3)C(=O)N2[C@H]1C(=O)O` [ampicillin, Ampicillin] was tested, and the “Concentration up to which negligible beating rate changes were observed” value ([1]; human, 1 h) was “up to 1 mM” and the “Concentration up to which negligible / no significant toxicity was detected (ATP-based cell viability)” value (Cardiac spheroids) was no more than 10000 µM.
For `Cc1c(C)c2c(c(C)c1O)CCC(C)(COc1ccc(CC3SC(=O)NC3=O)cc1)O2` (stereo not shown) [troglitazone], the “Concentration … of contraction was observed” value ([1]; human, 1 h) was 50 µM.
`N=C(N)c1ccc(OCCCCCOc2ccc(C(=N)N)cc2)cc1` [pentamidine, Pentamidine] was tested, and the “Concentration at which complete arrest of beating was observed” value ([2]; 1 h) was 100 µM, the “Concentration showing pronounced changes in contraction speed” value ([2]; 1 h) was 10 µM and the “Time at which significant reduced beating speed was observed” value ([2]; 5 μM) was 28 h. The “Time of total arrest of beating” value ([2]; 5 μM) was 44 h, the “Time at which significant reduced beating speed was observed” value ([2]; 10 μM) was 4 h and the “Time of total arrest of beating” value ([2]; 10 μM) was 30 h.
For `CC[C@H]1OC(=O)[C@H](C)[C@@H](O[C@H]2C[C@@](C)(OC)[C@@H](O)[C@H](C)O2)[C@H](C)[C@@H](O[C@@H]2O[C@H](C)C[C@H](N(C)C)[C@H]2O)[C@](C)(O)C[C@@H](C)C(=O)[C@H](C)[C@@H](O)[C@]1(C)O` [erythromycin], the “Concentration … of contraction was observed” value ([1]; human, 1 h) was 10 µM and the “Concentration up to which negligible / no significant toxicity was detected (ATP-based cell viability)” value (Cardiac spheroids) was “up to 500 μM”.
In the case of `CN(C)C(=N)N=C(N)N` [metformin], the “Change in beating rates” value [1] is reported as “less pronounced changes in beating rates”.
